Key:
[1] = target: T1, AHR (UniProt P35869); assay: DRE-Luciferase Reporter Assay (Alternate Method) (Example 1B); format: cell-based, murine or human; conditions: cell line and AHR activating ligand not specified
T1 construct: IC50
T1 sequence (P35869 1-848): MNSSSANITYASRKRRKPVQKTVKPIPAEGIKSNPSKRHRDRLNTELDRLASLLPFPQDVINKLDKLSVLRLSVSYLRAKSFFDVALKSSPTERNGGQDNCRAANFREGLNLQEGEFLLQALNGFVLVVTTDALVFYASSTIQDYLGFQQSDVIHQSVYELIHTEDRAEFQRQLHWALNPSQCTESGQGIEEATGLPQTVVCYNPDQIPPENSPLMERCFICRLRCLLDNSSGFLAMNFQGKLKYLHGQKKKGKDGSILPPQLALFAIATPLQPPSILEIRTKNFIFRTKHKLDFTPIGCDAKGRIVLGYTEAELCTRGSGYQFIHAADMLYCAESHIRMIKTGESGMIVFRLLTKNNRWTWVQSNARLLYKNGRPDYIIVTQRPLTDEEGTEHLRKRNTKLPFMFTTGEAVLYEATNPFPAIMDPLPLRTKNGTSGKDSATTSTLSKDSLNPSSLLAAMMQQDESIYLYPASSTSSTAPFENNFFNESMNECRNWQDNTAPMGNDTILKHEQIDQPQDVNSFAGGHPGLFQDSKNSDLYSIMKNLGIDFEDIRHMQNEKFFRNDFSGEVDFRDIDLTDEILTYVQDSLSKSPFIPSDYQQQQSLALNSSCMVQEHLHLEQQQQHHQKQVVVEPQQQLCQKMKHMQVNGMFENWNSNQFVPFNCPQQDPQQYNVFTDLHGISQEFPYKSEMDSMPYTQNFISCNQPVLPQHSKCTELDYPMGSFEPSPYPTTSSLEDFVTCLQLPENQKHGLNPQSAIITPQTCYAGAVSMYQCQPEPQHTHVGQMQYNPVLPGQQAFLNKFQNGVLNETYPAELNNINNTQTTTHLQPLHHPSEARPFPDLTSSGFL

[2] = Mouse Pharmacokinetic Study (Example 1C); format: in vivo; conditions: plasma, CD-1 mice; for bioavailability / AUC(0-inf) / AUC(0-t) / clearance / half-life / Vd / Cmax / Tmax: mouse; for Vd: read-out: Vdss
Method: Formulations of compounds set forth in Table 4 were administered intravenously or orally via gavage to CD-1 mice. Typically, at 0.167, 0.5, 1, 2, 4, 6, 12, and 24 hours post-dose, blood was collected and processed to plasma by centrifugation and stored at −80° C. until analysis.
Internal standard was added to each sample prior to protein precipitation with acetonitrile. The precipitates were filtered through a Phree phospholipid removal filter plate and the samples were analyzed by LC/MS/MS. A standard curve was prepared in plasma from typically from 1.0 ng/mL to 3000 ng/mL and processed in the same manner as the samples. Sample analysis was typically performed on a suitable LC/MS/MS system fitted with an analytical UPLC column and compounds eluted from the analytical column with a gradient from 30-95% 0.1% formic acid (v/v) in ACN: 0.1% formic acid (v/v) in water. Mass spectrometric detection of test compound and the internal standard was performed by MRM in positive mode. The pharmacokinetics of each compound were analyzed by Phoenix WinNonlin software (Pharsight, St. Louis, Mo.) via non-compartmental analysis.

[3] = In Vitro Mouse liver S9 Metabolic Stability Assay (Example 1D); format: in vitro ADME; conditions: CD-1 mouse liver S9, 1 μM compound, 1 mg/mL S9 protein, 37° C., NADPH regenerating system, UDPGA, PAPS
Method: CD-1 mouse liver S9 were purchased from Corning or XenoTech LLC or BioreclamationIVT, LLC or WuXi prepared. The cells were stored at −80° C. in a freezer before use. β-Nicotinamide adenine dinucleotide phosphate (NADP), Glucose 6-phosphate (G6P), Glucose 6-phosphate dehydrogenase from yeast (G6PDH), Uridine 5′-diphophoglucuronic acid trisodium salt (UDPGA) and Adenosine 3′-phosphate 5′-phosphosulfate lithium salt hydrate (PAPS) were available commercially from Sigma.
Compounds were diluted in DMSO to make 10 mM stock solution. 5 μL of this stock solution (10 mM, DMSO) was diluted with 45 μL DMSO and 450 μL 50% Methanol/Water to make intermediate stock solution (100 μM, 45% MeOH, 10% DMSO). 50 μL of intermediate stock solution was diluted with 450 μL 100 mM phosphate buffer to make a final stock solution (10 μM, 4.5% MeOH, 1% DMSO). 10 uL of final stock solution was added to 90 uL liver S9 system (final concentration of 1 μM, 0.45% MeOH, 0.1% DMSO).
Test compounds were incubated at 37° C. with liver S9 (pooled from multiple donors) at 1 μM in the presence of a NADPH regenerating system, UDPGA, and PAPS at 1 mg/mL S9 protein. Time samples (0 and 60 minutes) were removed and immediately mixed with cold acetonitrile containing internal standard (IS). Samples were analyzed by LC/MS/MS and disappearance of test compounds were assessed based on peak area ratios of analyte /IS (no standard curve). All samples were injected and analyzed using LC-MS/MS. The analyte/internal standard peak area ratios were converted to percentage remaining (% Remaining) with the following equation: % Remaining at 60 min=(Peak area ratio of analyte to IS at 60 min/Peak area ratio of analyte to IS at t=0)×100%. Table 5. Mouse Stability Data According to Example 1D.

[4] = po, 15 mg/kg, 3.00 mg/mL in DMSO:solutol:water = 5:10:85, solution

SMILES | IC50 [1] | bioavailability ([2]; po, 30 mg/kg) | AUC(0-inf) ([2]; iv, 3 mg/kg) | AUC(0-t) ([2]; iv, 3 mg/kg) | clearance ([2]; iv, 3 mg/kg) | half-life ([2]; iv, 3 mg/kg) | Vd ([2]; iv, 3 mg/kg) | AUC(0-inf) ([2]; po, 30 mg/kg) | AUC(0-t) ([2]; po, 30 mg/kg) | Cmax ([2]; po, 30 mg/kg) | Tmax ([2]; po, 30 mg/kg) | half-life ([2]; po, 30 mg/kg) | Mouse S9 Stability: % Remaining After 60 Minutes [3] | Tlast [2, 4] | bioavailability [2, 4] | Tmax [2, 4]
Fc1cncc(-c2nc(N[C@@H]3CCc4[nH]c5ccccc5c4C3)n3ncc(Br)c3n2)c1 [I-154, (3R)—N-[8-Bromo-2-(5-fluoro-3-pyridyl)pyrazolo[1,5-a][1,3,5]triazin-4-yl]-2,3,4,9-tetrahydro-1H-carbazol-3-amine] | < 500 nM | 39% | 3030 ng·h/mL | 2410 ng·h/mL | 16.5 mL/min/kg | 12 h | 13.7 L/kg | 11200 ng·h/mL | 9360 ng·h/mL | 840 ng/mL | 2 h | 9.6 h | 13% | – | – | –
Cc1cnn2c(N[C@H]3Cc4ccc(O)cc4C3)cc(-c3cncc(F)c3)nc12 [I-219, (2S)-2-[[5-(5-fluoro-3-pyridyl)-3-methyl-pyrazolo[1,5-a]pyrimidin-7-yl]amino]indan-5-ol] | < 500 nM | 2% | 682 ng·h/mL | 678 ng·h/mL | 73.3 mL/min/kg | 0.7 h | 2.4 L/kg | 215 ng·h/mL | 132 ng·h/mL | 48.9 ng/mL | 0.2 h | – | 5% | – | – | –
Fc1cncc(-c2cc(OC3CCCC3)nc(NCCc3c[nH]c4ccccc34)n2)c1 [I-59, 4-(Cyclopentoxy)-6-(5-fluoro-3-pyridyl)-N-[2-(1H-indol-3-yl)ethyl]pyrimidin-2-amine] | < 500 nM | 22% | 949 ng·h/mL | 925 ng·h/mL | 53 mL/min/kg | 6.6 h | 11.2 L/kg | 2130 ng·h/mL | 2110 ng·h/mL | 719 ng/mL | 0.5 h | 4.3 h | 11% | – | – | –
CN(C)c1cnn2c(N[C@H]3Cc4ccc(O)cc4C3)cc(-c3cncc(F)c3)nc12 [I-204b, (2S)-2-[[3-(dimethylamino)-5-(5-fluoro-3-pyridyl)pyrazolo[1,5-a]pyrimidin-7-yl]amino]indan-5-ol] | < 500 nM | 2% | 455 ng·h/mL | 454 ng·h/mL | 110 mL/min/kg | 0.9 h | 4 L/kg | 67 ng·h/mL | 63 ng·h/mL | 55 ng/mL | 0.2 h | 3.2 h | 0% | – | – | –
Cc1[nH]c2c(F)cc(F)cc2c1CCNc1cc(-c2cncc(F)c2)nc2c(C(C)C)cnn12 [I-107, N-[2-(5,7-Difluoro-2-methyl-1H-indol-3-yl)ethyl]-5-(5-fluoro-3-pyridyl)-3-isopropyl-pyrazolo[1,5-a]pyrimidin-7-amine] | < 500 nM | – | 92 ng·h/mL | 88 ng·h/mL | 540 mL/min/kg | 2.18 h | 43.2 L/kg | – | – | – | – | – | 0% | 0 h | 0% | 0 h

Other lines, results leading:

IC50 [1] | bioavailability ([2]; po, 30 mg/kg) | AUC(0-inf) ([2]; iv, 3 mg/kg) | AUC(0-t) ([2]; iv, 3 mg/kg) | clearance ([2]; iv, 3 mg/kg) | half-life ([2]; iv, 3 mg/kg) | Vd ([2]; iv, 3 mg/kg) | AUC(0-inf) ([2]; po, 30 mg/kg) | AUC(0-t) ([2]; po, 30 mg/kg) | Cmax ([2]; po, 30 mg/kg) | Tmax ([2]; po, 30 mg/kg) | half-life ([2]; po, 30 mg/kg) | Mouse S9 Stability: % Remaining After 60 Minutes [3] | Tlast [2, 4] | bioavailability [2, 4] | Tmax [2, 4] | SMILES
< 500 nM | 12% | 565 ng·h/mL | 555 ng·h/mL | 88.5 mL/min/kg | 2.3 h | 5.8 L/kg | 657 ng·h/mL | 656 ng·h/mL | 604 ng/mL | 0.2 h | 0.7 h | 0% | – | – | – | CN(C)c1cnn2c(NCCc3c[nH]c4ccccc34)cc(-c3cncc(F)c3)nc12 [I-203, 5-(5-fluoro-3-pyridyl)-N7-[2-(1H-indol-3-yl)ethyl]-N3,N3-dimethyl-pyrazolo[1,5-a]pyrimidine-3,7-diamine]
< 500 nM | 7% | 537 ng·h/mL | 522 ng·h/mL | 93.1 mL/min/kg | 0.7 h | 2.7 L/kg | 373 ng·h/mL | 370 ng·h/mL | 574 ng/mL | 0.2 h | 0.8 h | 0% | – | – | – | O=C(c1cnn2c(NCCc3c[nH]c4ccccc34)cc(-c3cncc(F)c3)nc12)N1CCOCC1 [I-65, [5-(5-Fluoro-3-pyridyl)-7-[2-(1H-indol-3-yl)ethylamino]pyrazolo[1,5-a]pyrimidin-3-yl]-morpholino-methanone]
< 500 nM | 52% | 772 ng·h/mL | 765 ng·h/mL | 64.8 mL/min/kg | 4.3 h | 12.1 L/kg | 4050 ng·h/mL | 3960 ng·h/mL | 721 ng/mL | 1 h | 4.2 h | 30% | – | – | – | C[C@@H](O)c1cnn2c(N[C@@H]3CCc4[nH]c5ccccc5c4C3)cc(-c3cncc(F)c3)nc12 [I-198a, (1R)-1-[5-(5-Fluoro-3-pyridyl)-7-[[(3R)-2,3,4,9-tetrahydro-1H-carbazol-3-yl]amino]pyrazolo[1,5-a]pyrimidin-3-yl]ethanol]
< 500 nM | 51% | 567 ng·h/mL | 564 ng·h/mL | 88.1 mL/min/kg | 1.8 h | 2 L/kg | 2870 ng·h/mL | 2860 ng·h/mL | 2170 ng/mL | 0.2 h | 3.3 h | 0% | – | – | – | C[C@H](O)c1cnn2c(NCCc3c[nH]c4ccccc34)cc(-c3cncc(F)c3)nc12 [I-222b, (1S)-1-[5-(5-Fluoro-3-pyridyl)-7-[2-(1H-indol-3-yl)ethylamino]pyrazolo[1,5-a]pyrimidin-3-yl]ethanol]
< 500 nM | 16% | 1330 ng·h/mL | 1330 ng·h/mL | 36.9 mL/min/kg | 2.4 h | 1.5 L/kg | 2240 ng·h/mL | 2230 ng·h/mL | 2870 ng/mL | 0.2 h | 1.7 h | 1% | – | – | – | C[C@@H](O)c1cnn2c(NCCc3c[nH]c4ccccc34)cc(-c3cncc(F)c3)nc12 [I-222a, (1R)-1-[5-(5-Fluoro-3-pyridyl)-7-[2-(1H-indol-3-yl)ethylamino]pyrazolo[1,5-a]pyrimidin-3-yl]ethanol]

From patent US11358969B2, “Indole AHR inhibitors and uses thereof” (Ikena Oncology, Inc., priority 2017, dated 2022)
